Test [1] relates to hippocampal neurons. Put plainly: Hypoxia Survival Assay, cultured hippocampal neurons (MTT). It counts as cell-based, Sprague-Dawley rat. Particulars: 50 μM compound. The method, then:
Hippocampal neurons were obtained from embryonic day 17 Sprague-Dawley rats. The brains were removed and the hippocampus dissected, placed in ice-cold Leibovitz L-15 medium, carefully stripped of any remaining meninges, and minced into small pieces using scissors. The tissue was rinsed with calcium-magnesium-free Hanks' Balanced Salt Solution and incubated with 0.25% trypsin (Worthington), 40 μg/ml DNAase (Sigma) for 30 minutes at 36° C. Following incubation, the cells were rinsed with 10% serum-containing medium and dissociated by gentle trituration using a reduced bore diameter Pasteur pipet. […]
The neuronal survival assay utilized the compound MTT [3-(4,5-dimethylthiazol-2-yl)-2,5-diphenyl tetrazolium bromide], a pale yellow substrate that is cleaved by the mitochondrial enzyme succinate-dehydrogenase to yield a dark blue formazan product. […] The precipitate was then solubilized using 0.08N HCl/isopropanol mixture and the absorbance measured with an ELISA plate reader (Dynatech MR600) using a test wavelength of 570 nm and a reference wavelength of 630 nm. […]
The cells were grown for 2-3 weeks in 5% CO2 -in-air humidified environment at 36° C. to establish a thick network of neuronal processes with numerous spontaneously active synapses. […] Following 2 hours of exposure to normal O2 tension, the cultures were processed for morphological and quantitive biochemical neuronal cell viability assays.

Test [2] deals with NMDA receptor. The test can be described thus: NMDA-specific L-[3H]glutamate receptor binding assay, synaptic plasma membranes. Conditions: L-[3H]glutamate 12.5 nM, Triton X-100 treated SPM, 0-4° C., 10 min. How it is done:
Synaptic plasma membranes (SPM) were prepared as previously described [Monahan, J. B. and Michel, J., "Identification and Characterization of an N-methyl-D-aspartate-specific L[^3 H]glutamate Recognition Site in Synaptic Plasma Membranes, J. Neurochem., 48, 1699-1708 (1987)]. The SPM were stored at a concentration of 10-15 mg/ml in 0.32M sucrose, 0.5 mM EDTA, 1 mM MgSO4, 5 mM Tris/SO4, pH 7.4, under liquid nitrogen. The identity and purity of the subcellular fractions were confirmed by both electron microscopy and marker enzymes. Protein concentrations were determined by using a modification of the method of Lowry [Ohnishi, S. T. and Barr, J. K., "A Simplified Method of Quantitating Proteins Using the Biuret and Phenol Reagents", Anal. Biochem., 86, 193-197 (1978)].
Prior to use in the NMDA-specific L-[^3 H]glutamate binding assay the SPM were thawed, diluted twenty fold with 50 mM Tris/acetate, pH 7.4 containing 0.04% (v/v) Triton X-100, incubated for 30 minutes at 37° C. and centrifuged as described above. The Triton X-100 treated membranes were washed with 50 mM Tris/acetate, pH 7.4 and centrifuged at 100,000 g for 15 minutes a total of four times.
The basic procedure for the receptor subclass binding assays was similar. This general method involved adding the radioligand (12.5 nM L-[^3 H]glutamate; 0.5 nM [^3 H]kainate or 10 nM [^3 H]AMPA) to the appropriate concentration of the test compound and initiating the assay by the addition of ice cold synaptic plasma membranes (0.2-0.45 mg). The binding assays were performed in 1.5 mL centrifuge tubes with the total volume adjusted to 1.0 mL. .Additions of test compounds were made in 50 mM Tris/acetate, pH 7.4 and incubations were carried out at 0°-4° C. The incubation time for the NMDA and the AMPA binding assays was 10 minutes, for the kainate binding assay 60 minutes and for the sodium-dependent glutamate binding assay 15 minutes. The AMPA binding assay contained 100 mM KSCN and the sodium-dependent glutamate binding assay contained 150 mM sodium acetate in addition to the previously described reagents.
To terminate the incubation, the samples were centrifuged for 15 minutes at 12,000 g and 4° C. in a Beckman Microfuge 12. The supernatant was aspirated and the pelleted membranes dissolved in Beckman BTS-450 tissue solubilizer for a minimum of 6 hours at room temperature. Beckman MP scintillation cocktail containing 7 mL/1 acetic acid was then added and the samples counted on a Beckman LS 5800 or 3801 liquid scintillation counter with automatic corrections for quenching and counting efficiency.
Nonspecific binding was defined as the residual binding in the presence of either excess L-glutamate (0.1-0.4 mM), kainate (0.01 mM), or NMDA (0.5 mM), and was 15-25% of the total binding in the NMDA binding assay, 19-27% in the AMPA binding assay, 20-30% in the kainate binding assay and 10-15% in the sodium-dependent binding assay. Radioligand binding to the synaptic plasma membranes was analyzed using Scatchard and Hill transformations and the Ki values of the compounds determined using logit-log transformations. Calculations and regression analysis were performed using templates developed for Lotus 1, 2, 3 as previously described [Pullan, L. M. "Automated Radioligand Receptor Binding Analysis with Templates for Lotus", Computer Appln. Biosci., 3 131 (1987)]. Binding results are reported in Table II for example compounds of the invention. […]

What is called Ki is the dissociation constant of the complex between target and ligand, obtained from inhibition or displacement. Lower therefore signals a stronger hold on the target. `NC(C(=O)O)c1ccc(CP(=O)(O)O)cc1` (centres unmarked) [Example VI, 4-(Phosphonomethyl)phenylglycine]: the “protection of neurons from hypoxic insult” value in test [1] was “Maximum protection of neurons from hypoxic insult”. Also, in test [2], the affinity, expressed as Ki, was 3.9 µM.

The values are drawn from patent US4918064A, “Phenyl glycines for use in reducing neurotoxic injury” (G. D. Searle & Co., priority 1987, dated 1990).
